The text below walks through data of patent US20250084041A1, “ANTIMICROBIAL COMPOUNDS AND METHODS” (Curza Global, LLC, priority 2021, published 2025).

A word on the IC50: it is the concentration that inhibits the measured activity by half. For orientation: MIC means the lowest concentration that inhibits growth of the organism.

Each structure is given as a SMILES string. Structures can show the parent of a compound that is named as a salt.

One experiment has as its system E. coli S30 extract. Briefly: E. coli S30 extract: inhibition of bacterial protein synthesis (luciferase). It counts as biochemical. Particulars: 37° C. 1 hour. The method, then: E. coli S30 extract: Inhibition of bacterial protein synthesis was determined using the E. coli S30 Extract System for Circular DNA (Promega catalog #L-2010) and Luciferase Assay Reagent (Promega catalog #E1500) with slight modifications to a published protocol. Fyfe, C., Sutcliffe, J. A. and Grossman, T. H. (2012) “Development and characterization of a Pseudomonas aeruginosa in vitro coupled transcription-translation assay system for evaluation of translation inhibitors” J. Microbiol. Methods 90(3), 256-261.
Compounds were serial diluted in 0.5 mL microcentrifuge tubes by mixing and transferring 50 μL from the highest concentration to 50 μL of water, mixing and transferring 50 μL of this 2-fold dilution to 50 μL of water. This mixing and transferring was repeated so that there are a total of 8 tubes with serial dilutions of compound at 10× the desired screening concentration that are ultimately diluted to 1× by the addition of S30 luciferase synthesis mixture. Serial dilutions of compounds were added (2 μL) to wells in a black round bottom 96-well plate. Water (2 μL) was used as a “no inhibitor” control in 4 wells/plate. No DNA control reaction mixture (20 μL; see below) was used as a control in 4 wells/plate for background luminescence. S30 luciferase synthesis mixture (18 μL; see below) was added to wells with compounds or water mixture and incubated at 37° C. for 1 hour. Reactions were stopped by transferring to 4° C. refrigerator for 5 minutes then 25 μL of luciferase activity mix was added. Luminescence was measured using a BioTek Synergy HTX plate reader. % Inhibition was determined relative to no inhibitor controls.
• 445 μL S30 extract, circular • 712 μL S30 Premix without amino acids • 4.45 μL pBESTluc™ DNA (1 μg/μL) • 78 μL complete amino acid mixture • 267 μL water
• 20 μL S30 extract, circular • 32 μL S30 Premix without amino acids • 7 μL complete amino acid mixture • 21 μL water

Experiment [1] deals with Rabbit Reticulocyte Lysate. The experiment can be described thus: Rabbit Reticulocyte Lysate: inhibition of eukaryotic protein synthesis (luciferase). The format is biochemical. Particulars: 30° C. 90 minutes, read-out: Retic. IC50. The method, then:
Inhibition of eukaryotic protein synthesis was determined using the Rabbit Reticulocyte Lysate System, Nuclease-Treated from Promega (catalog #L-4960) with slight modifications to the manufacturer's protocol. Compounds were serial diluted in 0.5 mL microcentrifuge tubes by mixing and transferring 50 μL from the highest concentration to 50 μL of water, mixing and transferring 50 μL of this 2-fold dilution to 50 μL of water. This mixing and transferring was repeated so that there are a total of 8 tubes with serial dilutions of compound at 10× the desired screening concentration that are ultimately diluted to 1× by the addition of rabbit reticulocyte luciferase synthesis mixture. Serial dilutions of compounds were added ([…]) to wells in a black round bottom 96-well plate. Water (2.5 μL) was used as a “no inhibitor” control in 4 wells/plate. No RNA control reaction mixture ([…]; see below) was used as a control in 4 wells/plate for background luminescence. Rabbit reticulocyte luciferase synthesis mixture (22.5 μL; see below) was added to wells with compounds or water mixture and incubated at 30° C. for 90 minutes. Luciferase assay reagent (25 μL) was added with luminescence measured using a BioTek Synergy HTX plate reader. % Inhibition was determined relative to no inhibitor controls.
• 1,000 μL rabbit reticulocyte lysate • 5.7 μL Luciferase Control RNA (1 μg/μL) • 26 μL complete amino acid mixture • 395 μL water
• 70 μL rabbit reticulocyte lysate • 2 μL complete amino acid mixture • 28 μL water

The test system of another experiment is E. faecalis (Ef). Briefly: Broth microdilution MIC, E. faecalis. The format is cell-based. To be noted: Enterococcus faecalis, read-out: Ef + bicarb 25 (MIC). The method, then:
(§1) A certified BSL-2 laboratory was used for testing. Compounds were evaluated using the broth microdilution minimum inhibitory concentration (MIC) and minimum bactericidal concentration (MBC) assays defined by Clinical and Laboratory Standards Institute (CLSI) in the M26-A guideline against S. aureus (Sa), E. coli (Ec), K. pneumoniae (Kp), A. baumannii (Ab), E. faecalis (Ef) and P. aeruginosa (Pa).
(§2) MICs were determined using the Clinical Laboratory and Standards Institute (CLSI) Broth Microdilution Method with slight modification. Clinical and Laboratory Standards Institute (2012). “Methods for dilution antimicrobial susceptibility tests for bacteria that grow aerobically; approved standard, 9th ed. M07-A9. Clinical and Laboratory Standards Institute, Wayne, PA.” Serial two-fold dilutions of compounds are prepared in sterile clear round-bottom 96-well plates.
(§3) To prepare microdilution trays, two-fold dilutions of antimicrobial agent are prepared in growth medium: Cation-Adjusted Mueller-Hinton Broth (CAMHB), or CAMHB supplemented with sodium bicarbonate (25 mM final concentration prepared from a 1.0 M stock solution) or CAMHB supplemented with heat inactivated human serum (Fisher Cat. #BP2657100) 0-50% by adding 200 μL of the highest concentration to be tested (64 μg/mL, for example) in row A, mixing and transferring 100 μL from row A to 100 μL growth medium in row B, then repeating the mixing and transferring through row H of the 96-well plate, discarding the excess 100 μL remaining. This slight modification to the CLSI protocol enables evaluation of MICs for 3 compounds per plate in triplicate, albeit with only 8 compound dilutions (CLSI protocol enables 2 compounds in triplicate with 10 dilutions). Bacterial suspensions are added to a final concentration of 5×10^4 CFU/well by adding 5 μL of a 1:10 dilution of a 0.5 McFarland suspension (1×10^8 CFU/mL) for each bacterium evaluated. Bacterial suspensions were prepared using the growth method described by CLSI. Well-isolated colonies (3-5 from an agar plate) were selected using a sterile loop and used to inoculate a tube containing 4 mL of CAMHB. The cultures are incubated at 35±2° C. until it achieves or exceeds the turbidity of the 0.5 McFarland standard, determined by measuring A600nm (usually two to six hours). When growth exceeds a 0.5 McFarland standard, the turbidity is adjusted with broth to be equivalent to a 0.5 McFarland standard.
(In broth dilution the organism is exposed to a series of concentrations in liquid medium.)

A further experiment has as its system A. baumannii (Ab). The experiment can be described thus: Broth microdilution MIC, A. baumannii. It counts as cell-based. To be noted: Acinetobacter baumannii, read-out: Ab + bicarb 25 (MIC). The method, then:
as §1, §2, §3

The subject of a further experiment is P. aeruginosa (Pa). Briefly: Broth microdilution MIC, P. aeruginosa. It counts as cell-based. Particulars: Pseudomonas aeruginosa, read-out: Pa + bicarb 25 (MIC). The method, then: as §1, §2, §3
Another experiment deals with S. aureus (Sa). The experiment can be described thus: Broth microdilution MIC, S. aureus. Particulars: Staphylococcus aureus, read-out: Sa + bicarb 25 (MIC). It counts as cell-based. The method, then: as §1, §2, §3

In the case of `CC(C)(N)C(=O)N1CCN(C(=O)Nc2ccn(C3=CCC(CN4C[C@@H]5[C@@H](N)[C@@H]5C4)CC3)c(=O)n2)CC1` (single isomer, unassigned) [Compound 34, 4-(2-Amino-2-methylpropanoyl)-N-(1-(4-(((exo)-6-amino-3-azabicyclo[3.1.0]hexan-3-yl)methyl)cyclohex-1-en-1-yl)-2-oxo-1,2-dihydropyrimidin-4-yl)piperazine-1-carboxamide hydrochloride salt], the values for the concentration for half-maximal inhibition (IC50) (with E. coli S30 extract; in experiment [1]) were less than 500 nM and no less than 1000 nM, respectively.

For the compound `CC1(N)CCN(CC2CC=C(n3ccc(NC(=O)N4CCN(C(=O)C(C)(C)N)CC4)nc3=O)CC2)CC1` (single isomer, unassigned) [Compound 38, 4-(2-Amino-2-methylpropanoyl)-N-(1-(4-((4-amino-4-methylpiperidin-1-yl)methyl)cyclohex-1-en-1-yl)-2-oxo-1,2-dihydropyrimidin-4-yl)piperazine-1-carboxamide hydrochloride salt], the concentration for half-maximal inhibition (IC50) in the experiment with E. coli S30 extract was less than 500 nM; in experiment [1], no less than 1000 nM.

Consider `CC(C)(N)C(=O)N1CCN(C(=O)Nc2ccn(C3=CCC(CN[C@H]4CC[C@H](N)CC4)CC3)c(=O)n2)CC1` (single isomer, unassigned) [Compound 40, trans-4-(2-Amino-2-methylpropanoyl)-N-(1-(4-(((4-aminocyclohexyl)amino)methyl)cyclohex-1-en-1-yl)-2-oxo-1,2-dihydropyrimidin-4-yl)piperazine-1-carboxamide hydrochloride salt], for which the IC50 in the experiment with E. coli S30 extract was less than 500 nM; in experiment [1] it was no less than 1000 nM.

For `CC(C)(N)C(=O)N1CCN(C(=O)Nc2ccn(C3=CCC(CN4CCCC(N)CC4)CC3)c(=O)n2)CC1` (single isomer, unassigned) [Compound 42, 4-(2-Amino-2-methylpropanoyl)-N-(1-(4-((4-aminoazepan-1-yl)methyl)cyclohex-1-en-1-yl)-2-oxo-1,2-dihydropyrimidin-4-yl)piperazine-1-carboxamide hydrochloride salt], the IC50 with E. coli S30 extract is less than 500 nM; in experiment [1], no less than 1000 nM.

For `CC(C)(N)C(=O)N1CCN(C(=O)Nc2ccn(C3CCC(CN4CC(N)C4)CC3)c(=O)n2)CC1` (stereo not shown) [Compound 10, 4-(2-Amino-2-methylpropanoyl)-N-(1-(4-((3-aminoazetidin-1-yl)methyl)cyclohexyl)-2-oxo-1,2-dihydropyrimidin-4-yl)piperazine-1-carboxamide hydrochloride salt], the IC50 (with E. coli S30 extract; in experiment [1]) was no less than 1000 nM throughout.

As for `CC1(N)CCN(CC2CCC(n3ccc(NC(=O)N4CCN(C(=O)C(C)(C)N)CC4)nc3=O)CC2)CC1` (stereo not shown) [Compound 15, 4-(2-amino-2-methylpropanoyl)-N-(1-(4-((4-amino-4-methylpiperidin-1-yl)methyl)cyclohexyl)-2-oxo-1,2-dihydropyrimidin-4-yl)piperazine-1-carboxamide hydrochloride salt], the MIC in the experiment on E. faecalis (Ef) and with A. baumannii (Ab) was greater than 32 µg/mL throughout. Besides, the IC50 with E. coli S30 extract is less than 500 nM; in experiment [1], no less than 1000 nM.

Regarding `CC(C)(N)C(=O)N1CCN(C(=O)Nc2ccn(C3=CCC(CN4C[C@@H]5[C@H](N)[C@@H]5C4)CC3)c(=O)n2)CC1` (stereo partly drawn) [Compound 22, endo-4-(2-Amino-2-methylpropanoyl)-N-(1-(4-((6-amino-3-azabicyclo[3.1.0]hexan-3-yl)methyl)cyclohex-1-en-1-yl)-2-oxo-1,2-dihydropyrimidin-4-yl)piperazine-1-carboxamide hydrochloride salt], the MIC in the experiment with P. aeruginosa (Pa) is greater than 32 µg/mL; in the experiment with E. faecalis (Ef), 8 to 32 µg/mL; in the experiment with S. aureus (Sa), less than 8 µg/mL; in the experiment on A. baumannii (Ab) it was less than 8 µg/mL. Moreover, the results for the IC50 (with E. coli S30 extract; in experiment [1]) were less than 500 nM and no less than 1000 nM, respectively.

`CC1(N)CCN(CC2CC=C(n3ccc(NC(=O)N4CCN(C(=O)C(C)(C)N)CC4)nc3=O)CC2)CC1` (stereo not shown) [Compound 27, 4-(2-Amino-2-methylpropanoyl)-N-(1-(4-((4-amino-4-methylpiperidin-1-yl)methyl)cyclohex-1-en-1-yl)-2-oxo-1,2-dihydropyrimidin-4-yl)piperazine-1-carboxamide hydrochloride salt]: the MIC with P. aeruginosa (Pa) was greater than 32 µg/mL; in the experiment on E. faecalis (Ef) it was less than 8 µg/mL; in the experiment on S. aureus (Sa), less than 8 µg/mL; with A. baumannii (Ab) it was 8 to 32 µg/mL. For the same compound, the IC50 is less than 500 nM in the experiment with E. coli S30 extract and no less than 1000 nM in experiment [1].

Consider `CC(C)(N)C(=O)N1CCN(C(=O)Nc2ccn(C3=CCC(CN4CCC(N)CC4)CC3)c(=O)n2)CC1` (stereo not shown) [Compound 28, 4-(2-Amino-2-methylpropanoyl)-N-(1-(4-((4-aminopiperidin-1-yl)methyl)cyclohex-1-en-1-yl)-2-oxo-1,2-dihydropyrimidin-4-yl)piperazine-1-carboxamide hydrochloride salt], for which the minimum inhibitory concentration (MIC) with E. faecalis (Ef) and with A. baumannii (Ab) was greater than 32 µg/mL in each case. In addition, the concentration for half-maximal inhibition (IC50) with E. coli S30 extract was 500 to 1000 nM; in experiment [1], no less than 1000 nM.

`CC(C)(N)C(=O)N1CCN(C(=O)Nc2ccn(C3=CCC(CN4CC5CC5(N)C4)CC3)c(=O)n2)CC1` (stereo not shown) [Compound 29, 4-(2-Amino-2-methylpropanoyl)-N-(1-(4-((1-amino-3-azabicyclo [3.1.0]hexan-3-yl)methyl)cyclohex-1-en-1-yl)-2-oxo-1,2-dihydropyrimidin-4-yl)piperazine-1-carboxamide hydrochloride salt]: the concentration for half-maximal inhibition (IC50) in the experiment with E. coli S30 extract was 500 to 1000 nM.
